{"source": "paper PMC7217150", "about": "“Synthesis, Modification, and Biological Evaluation of a Library of Novel Water‐Soluble Thiopyridone‐Based Organometallic Complexes and Their Unexpected (Biological) Behavior” (Chemistry (Weinheim an Der Bergstrasse, Germany), 2020)", "type_in_all_cases": "cell-based, human", "key": {"CH1/PA‐1 [1]": {"test_system": "CH1/PA‐1", "assay": "Cell cycle distribution, flow cytometry with propidium iodide", "conditions": "for Cell cycle distribution G1, % / Cell cycle distribution G2/M, % / Cell cycle distribution S, %: 24 h, mean ± SD; for Relative change in cell cycle distribution G1, % / Relative change in cell cycle distribution G2/M, % / Relative change in cell cycle distribution S, %: difference to untreated control", "description": "(§1) The influence of two ligands, as well as seven complexes on cell cycle distribution was tested in two of the cancer cell lines (SW480, CH1/PA‐1) by means of flow cytometry. The cell cycle distribution (G1, S, G2/M phase in %; Table S37) was investigated upon DNA staining with propidium iodide.\n(§2) CH1/PA‐1 and SW480 cells were harvested by trypsinization, 8×10^4 and 1.2×10^5 cells per well were seeded into 12‐well plates, respectively. The cells were allowed to attach and resume proliferation for 24 h after the seeding. […] After continuous exposure for 24 h at 37 °C and under 5 % CO2, the cells were harvested by trypsinization and centrifuged at 300 g for 3 min. The cells were washed with PBS (1 mL) and resuspended in propidium iodine (PI) containing HSF buffer (600 μL; 0.1 % Triton X‐100, 0.1 % sodium citrate, 50 μg mL^−1 PI in PBS). After incubation overnight at 4 °C in the dark, 5×10^3 cells were measured by flow cytometry with a Millipore Guava easyCyte 8HT instrument (Luminex, USA). Data were evaluated by means of FlowJo software (Tree Star) using Watson Pragmatic algorithms.60 The fitting of the curve was chosen to keep the root mean square error between 1.0 and 2.0, alongside with good fitting visual model."}, "SW480 [2]": {"test_system": "SW480", "assay": "Cell cycle distribution, flow cytometry with propidium iodide", "conditions": "for Cell cycle distribution G1, % / Cell cycle distribution G2/M, % / Cell cycle distribution S, %: 24 h, mean ± SD; for Relative change in cell cycle distribution G1, % / Relative change in cell cycle distribution G2/M, % / Relative change in cell cycle distribution S, %: difference to untreated control", "description": "as §1, §2"}, "A549": {"test_system": "A549", "assay": "MTT cytotoxicity assay, monolayer culture", "conditions": "exposure time 96 h, means ± SDs", "source_text": "(§3) A549 (non‐small cell lung carcinoma), SW480 and HCT‐116 (both colon carcinoma) were kindly provided by Brigitte Marian, Institute of Cancer Research, Department of Medicine I, Medical University of Vienna, Austria. The cell line CH1/PA‐1 (ovarian teratocarcinoma) was kindly provided by Lloyd R. Kelland (CRC Centre for Cancer Therapeutics, Institute of Cancer Research, Sutton, UK). All cell culture media (including supplements) and reagents were obtained from Sigma–Aldrich, and all plasticware from StarLab, unless indicated otherwise."}, "CH1/PA‐1 [3]": {"test_system": "CH1/PA‐1", "assay": "MTT cytotoxicity assay, monolayer culture", "conditions": "CH1/PA‐1, MTT assay, exposure time 96 h, means ± SDs", "source_text": "as §3"}, "SW480 [4]": {"test_system": "SW480", "assay": "MTT cytotoxicity assay, monolayer culture", "conditions": "SW480, MTT assay, exposure time 96 h, means ± SDs", "source_text": "as §3"}}}
{"smiles": "CC1=C2[O][Rh+]([Cl])[S]=C2C=CN1c1cccc2ccccc12.Cc1c(C)c(C)[c-](C)c1C", "note": "[Compound 5 d, Chlorido[1‐(naphthalene‐1‐yl)‐2‐methyl‐3‐oxo‐κO‐pyridine‐4(1H)‐thionato‐κS](η^5‐1,2,3,4,5‐pentamethylcyclopentadienyl)rhodium(III)]", "values": [{"measurement": "Cell cycle distribution G1, %", "setting": "CH1/PA‐1 [1]; CH1/PA-1, 1.25 µM", "result": "40 ± 10", "unit": "%"}, {"measurement": "Cell cycle distribution G2/M, %", "setting": "CH1/PA‐1 [1]; CH1/PA-1, 1.25 µM", "result": "16 ± 9", "unit": "%"}, {"measurement": "Cell cycle distribution S, %", "setting": "CH1/PA‐1 [1]; CH1/PA-1, 1.25 µM", "result": "44 ± 3", "unit": "%"}, {"measurement": "Relative change in cell cycle distribution G1, %", "setting": "CH1/PA‐1 [1]; CH1/PA-1, 1.25 µM", "result": 0, "unit": "%"}, {"measurement": "Relative change in cell cycle distribution G2/M, %", "setting": "CH1/PA‐1 [1]; CH1/PA-1, 1.25 µM", "result": -8, "unit": "%"}, {"measurement": "Relative change in cell cycle distribution S, %", "setting": "CH1/PA‐1 [1]; CH1/PA-1, 1.25 µM", "result": 8, "unit": "%"}, {"measurement": "Cell cycle distribution G1, %", "setting": "CH1/PA‐1 [1]; CH1/PA-1, 2.5 µM", "result": "38 ± 5", "unit": "%"}, {"measurement": "Cell cycle distribution G2/M, %", "setting": "CH1/PA‐1 [1]; CH1/PA-1, 2.5 µM", "result": "27 ± 8", "unit": "%"}, {"measurement": "Cell cycle distribution S, %", "setting": "CH1/PA‐1 [1]; CH1/PA-1, 2.5 µM", "result": "36 ± 7", "unit": "%"}, {"measurement": "Relative change in cell cycle distribution G1, %", "setting": "CH1/PA‐1 [1]; CH1/PA-1, 2.5 µM", "result": -2, "unit": "%"}, {"measurement": "Relative change in cell cycle distribution G2/M, %", "setting": "CH1/PA‐1 [1]; CH1/PA-1, 2.5 µM", "result": 3, "unit": "%"}, {"measurement": "Relative change in cell cycle distribution S, %", "setting": "CH1/PA‐1 [1]; CH1/PA-1, 2.5 µM", "result": 0, "unit": "%"}, {"measurement": "Cell cycle distribution G1, %", "setting": "CH1/PA‐1 [1]; CH1/PA-1, 5 µM", "result": "39 ± 6", "unit": "%"}, {"measurement": "Cell cycle distribution G2/M, %", "setting": "CH1/PA‐1 [1]; CH1/PA-1, 5 µM", "result": "22 ± 5", "unit": "%"}, {"measurement": "Cell cycle distribution S, %", "setting": "CH1/PA‐1 [1]; CH1/PA-1, 5 µM", "result": "40 ± 2", "unit": "%"}, {"measurement": "Relative change in cell cycle distribution G1, %", "setting": "CH1/PA‐1 [1]; CH1/PA-1, 5 µM", "result": -1, "unit": "%"}, {"measurement": "Relative change in cell cycle distribution G2/M, %", "setting": "CH1/PA‐1 [1]; CH1/PA-1, 5 µM", "result": -2, "unit": "%"}, {"measurement": "Relative change in cell cycle distribution S, %", "setting": "CH1/PA‐1 [1]; CH1/PA-1, 5 µM", "result": 4, "unit": "%"}, {"measurement": "Cell cycle distribution G1, %", "setting": "SW480 [2]; SW480, 2.5 µM", "result": "38 ± 12", "unit": "%"}, {"measurement": "Cell cycle distribution G2/M, %", "setting": "SW480 [2]; SW480, 2.5 µM", "result": "22 ± 8", "unit": "%"}, {"measurement": "Cell cycle distribution S, %", "setting": "SW480 [2]; SW480, 2.5 µM", "result": "40 ± 3", "unit": "%"}, {"measurement": "Relative change in cell cycle distribution G1, %", "setting": "SW480 [2]; SW480, 2.5 µM", "result": -10, "unit": "%"}, {"measurement": "Relative change in cell cycle distribution G2/M, %", "setting": "SW480 [2]; SW480, 2.5 µM", "result": 3, "unit": "%"}, {"measurement": "Relative change in cell cycle distribution S, %", "setting": "SW480 [2]; SW480, 2.5 µM", "result": 7, "unit": "%"}, {"measurement": "Cell cycle distribution G1, %", "setting": "SW480 [2]; SW480, 5 µM", "result": "43 ± 10", "unit": "%"}, {"measurement": "Cell cycle distribution G2/M, %", "setting": "SW480 [2]; SW480, 5 µM", "result": "20 ± 3", "unit": "%"}, {"measurement": "Cell cycle distribution S, %", "setting": "SW480 [2]; SW480, 5 µM", "result": "37 ± 8", "unit": "%"}, {"measurement": "Relative change in cell cycle distribution G1, %", "setting": "SW480 [2]; SW480, 5 µM", "result": -5, "unit": "%"}, {"measurement": "Relative change in cell cycle distribution G2/M, %", "setting": "SW480 [2]; SW480, 5 µM", "result": 1, "unit": "%"}, {"measurement": "Relative change in cell cycle distribution S, %", "setting": "SW480 [2]; SW480, 5 µM", "result": 4, "unit": "%"}, {"measurement": "Cell cycle distribution G1, %", "setting": "SW480 [2]; SW480, 10 µM", "result": "48 ± 10", "unit": "%"}, {"measurement": "Cell cycle distribution G2/M, %", "setting": "SW480 [2]; SW480, 10 µM", "result": "18 ± 1", "unit": "%"}, {"measurement": "Cell cycle distribution S, %", "setting": "SW480 [2]; SW480, 10 µM", "result": "34 ± 9", "unit": "%"}, {"measurement": "Relative change in cell cycle distribution G1, %", "setting": "SW480 [2]; SW480, 10 µM", "result": 0, "unit": "%"}, {"measurement": "Relative change in cell cycle distribution G2/M, %", "setting": "SW480 [2]; SW480, 10 µM", "result": -1, "unit": "%"}, {"measurement": "Relative change in cell cycle distribution S, %", "setting": "SW480 [2]; SW480, 10 µM", "result": 1, "unit": "%"}, {"measurement": "IC50", "setting": "A549", "result": "1300 ± 200", "unit": "nM"}, {"measurement": "IC50", "setting": "CH1/PA‐1 [3]", "result": "480 ± 60", "unit": "nM"}, {"measurement": "IC50", "setting": "SW480 [4]", "result": "1000 ± 100", "unit": "nM"}]}
{"smiles": "Cc1c(O)c(=S)ccn1-c1cccc2ccccc12", "note": "[Compound 2 d, 3‐hydroxy‐2‐methyl‐1‐(naphthalene‐1‐yl)pyridine‐4(1H)‐thione]", "values": [{"measurement": "IC50", "setting": "A549; Homo sapiens", "result": "1600 ± 100", "unit": "nM"}, {"measurement": "IC50", "setting": "CH1/PA‐1 [3]; Homo sapiens", "result": "620 ± 80", "unit": "nM"}, {"measurement": "IC50", "setting": "SW480 [4]; Homo sapiens", "result": "350 ± 20", "unit": "nM"}]}
